Test results reported in patent publication US20220267347A1, “SUBSTITUTED PYRIMIDINEDIONE COMPOUNDS AND USES THEREOF” (SUNSHINE LAKE PHARMA CO., LTD., priority 2019, published 2022).

What was measured:
humanized GnRH receptor = target: T1, humanized GnRH receptor (Homo sapiens, UniProt P30968); assay: Antagonism on humanized GnRH receptor transfected in RBL-1 cells, fluorescence detection of cytoplasmic calcium flow; assay type: cell-based; conditions: RBL-1 cells transfected with humanized GnRH receptor, 8 nM LH-RH
T1 construct: expressed in transfected cells; host or cells: RBL-1 cells (Rat Basophilic Leukemia)
T1 sequence (P30968 1-328): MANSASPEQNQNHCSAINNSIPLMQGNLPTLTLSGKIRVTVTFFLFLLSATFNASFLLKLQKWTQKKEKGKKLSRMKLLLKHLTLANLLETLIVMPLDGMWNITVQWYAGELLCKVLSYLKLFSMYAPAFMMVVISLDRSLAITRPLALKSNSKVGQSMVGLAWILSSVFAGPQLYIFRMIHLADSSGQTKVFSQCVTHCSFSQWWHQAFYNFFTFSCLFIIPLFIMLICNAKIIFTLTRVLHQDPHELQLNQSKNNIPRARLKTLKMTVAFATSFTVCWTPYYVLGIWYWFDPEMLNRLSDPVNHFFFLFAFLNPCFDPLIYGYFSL
Description: The antagonism of the compound on humanized GnRH receptor transfected in RBL-1 cells (Rat Basophilic Leukemia) was evaluated by a fluorescence method for detecting the cytoplasmic calcium flow.
The cells were suspended in HBSS buffer (Invitrogen, USA), 20 mM HEPES buffer (Invitrogen, USA) was added, and then the cells were added at an average density of 1.186×10^4 cells/well into a microwell reaction plate. Fluorescent probe (Fluo8 Direct, AAT Bioquest) was mixed with HBSS buffer (adding 20 mM HEPES buffer, pH=7.4), and the mixture was added into each well and the cells were incubated at 30° C. for 60 min. Then the reaction plate was placed in a microplate reader (FlipR Tetra, Molecular Device) for testing, the test compound or HBSS buffer (blank control) was added, after 5 min, 8 nM LH-RH was added, and the changes of the fluorescence intensity which is proportional to intracellular calcium ion concentration were measured. The fluorescence intensity of the blank control group without adding the compound was taken as 100% (inhibition rate was 0%), and the inhibition rate of the compound was calculated. The IC50 value was calculated by measuring the inhibition rate of the compound at different concentrations.

[1] = Pharmacokinetic evaluation after intravenous or gavage administration to rats; assay type: in vivo, SD rats; conditions: for AUC(0-inf) / AUC(0-t) / Cmax / MRT inf / Tmax / clearance / half-life: Sprague-Dawley (SD), rat, plasma
Description: (§1) The pharmacokinetics of the compound of the invention in rats and/or dogs were evaluated herein, the animal information was listed in Table B.
(§2) The compound of the present invention was administered to the animal subjects in the form of 10% DMSO+10% Kolliphor HS15+78% Saline+2% (2% HCl) solution or 78% Saline+2% (2% HCl)+20% PEG400 solution. Before administration, the animals were fasted for 12 hours but water was freely allowed. In the IV group, the dose was 1 mg/kg (Rats) or 0.5 mg/kg (dogs), blood samples were taken from vein at the following time points after administration (blood volume was about 0.2 mL): 0.083, 0.25, 0.5, 1.0, 2.0, 4.0, 6.0, 8.0 and 24 h (dogs) or 0.083, 0.25, 0.5, 1.0, 2.0, 5.0, 7.0 and 24 h (Rats), EDTA-K2 was pre-added to the blood vessels as an anticoagulant. In the gavage group, the dose was 5 mg/kg (Rats) or 2.5 mg/kg (dogs), blood samples were taken from vein at the following time points after administration (blood volume was about 0.2 mL): 0.25, 0.5, 1.0, 2.0, 4.0, 6.0, 8.0 and 24 h (dogs) or 0.25, 0.5, 1.0, 2.0, 5.0, 7.0 and 24 h (Rats), EDTA-K2 was pre-added to the blood vessels as an anticoagulant. The blood samples were centrifuged at […] for 2 minutes. The plasma was collected and kept at −20° C. or −70° C.
(§3) The above collected plasma samples were processed (after thawing of frozen plasma at room temperature, the thawed plasma was vortexed for 15 s; 10-20 μL of plasma was taken and 120-150 μL of acetonitrile solution containing internal standard was added to the plasma; the mixture was vortexed for 5 min amd centrifuged for 5 min at 4,000 rpm; 100 μL of supernatant was taken and 120-150 μL of methanol/water (v/v=1/1) was added to the suspernatant, and mixing), and then LC/MS/MS was used to analyze the concentration of the compound in plasma, and […] was used to calculate the pharmacokinetic parameters.

[2] = Pharmacokinetic evaluation after intravenous or gavage administration to dogs; assay type: in vivo, Beagle dogs; conditions: 2.5 mg/kg; for AUC(0-inf) / AUC(0-t) / Cmax / MRT inf / Tmax / half-life: beagle, dog, plasma, intravenous, i.v group; for F: gavage group
Description: as §1
as §2, with “In the gavage group, the dose was 5 mg/kg (Rats) or 2.5 mg/kg (dogs), blood samples were taken from vein at the following time points after administration (blood volume was about 0.2 mL): 0.25, 0.5, 1.0, 2.0, 4.0, 6.0, 8.0 and 24 h (dogs) or 0.25, 0.5, 1.0, 2.0, 5.0, 7.0 and 24 h (Rats), EDTA-K2 was pre-added to the blood vessels as an anticoagulant.” left out
as §3

Compound | IC50 (humanized GnRH receptor) [nM] | AUC(0-inf) ([1]; iv, i.v group, 1 mg/kg) [ng·h/mL] | AUC(0-t) ([1]; iv, i.v group, 1 mg/kg) [ng·h/mL] | Cmax ([1]; iv, i.v group, 1 mg/kg) [ng/mL] | MRT inf ([1]; iv, i.v group, 1 mg/kg) [h] | Tmax ([1]; iv, i.v group, 1 mg/kg) [h] | clearance ([1]; iv, i.v group, 1 mg/kg) [mL/min/kg] | half-life ([1]; iv, i.v group, 1 mg/kg) [h] | AUC(0-inf) ([1]; po, i.g group, 5 mg/kg) [ng·h/mL] | AUC(0-t) ([1]; po, i.g group, 5 mg/kg) [ng·h/mL] | Cmax ([1]; po, i.g group, 5 mg/kg) [ng/mL] | MRT inf ([1]; po, i.g group, 5 mg/kg) [h] | Tmax ([1]; po, i.g group, 5 mg/kg) [h] | half-life ([1]; po, i.g group, 5 mg/kg) [h] | F ([1]; i.g group, 5 mg/kg) [%] | AUC(0-inf) [2] [ng·h/mL] | AUC(0-t) [2] [ng·h/mL] | Cmax [2] [ng/mL] | MRT inf [2] [h] | Tmax [2] [h] | also measured
CONC(=O)Nc1ccc(-c2sc3c(c2CN(C)C)c(=O)n(-c2ccc(-n4nccn4)cn2)c(=O)n3Cc2c(F)cccc2F)cc1 [Example 2, 1-(4-(3-(5-(2H-1,2,3-triazol-2-yl)pyrid-2-yl)-1-(2,6-difluorobenzyl)-5-((dimethylamino)methyl)-2,4-dioxo-1,2,3,4-tetrahydrothieno[2,3-d]pyrimidin-6-yl)phenyl)-3-methoxyurea] | 3 | 266 | 261 | 352 | 1.22 | 0.083 | 62.7 | 1.33 | 529 | 519 | 177 | 2.48 | 0.667 | 1.91 | 39.8 | 4290 | 4130 | 720 | 5.59 | 1.33 | half-life [2]: 4.41 h; F [2]: 133%
CONC(=O)Nc1ccc(-c2sc3c(c2CN(C)C)c(=O)n(-c2ccc(-n4cccn4)nn2)c(=O)n3Cc2c(F)cccc2F)cc1 [Example 12, 1-(4-(3-(6-(1H-pyrazol-1-yl)pyridazin-3-yl)-1-(2,6-difluorobenzyl)-5-((dimethylamino)methyl)-2,4-dioxo-1,2,3,4-tetrahydrothieno[2,3-d]pyrimidin-6-yl)phenyl)-3-methoxyurea] | 3.13 |  |  |  |  |  |  |  |  |  |  |  |  |  |  |  |  |  |  |  | 
CONC(=O)Nc1ccc(-c2sc3c(c2CN(C)C)c(=O)n(-c2cccc(-n4cccn4)n2)c(=O)n3Cc2c(F)cccc2F)cc1 [Example 5, 1-(4-(3-(6-(1H-pyrazol-1-yl)pyrid-2-yl)-1-(2,6-difluorobenzyl)-5-((dimethylamino)methyl)-2,4-dioxo-1,2,3,4-tetrahydrothieno[2,3-d]pyrimidin-6-yl)phenyl)-3-methoxyurea] | 4.1 |  |  |  |  |  |  |  |  |  |  |  |  |  |  |  |  |  |  |  | 

Compounds with a lower IC50 (humanized GnRH receptor), results first:

IC50 (humanized GnRH receptor) [nM] | AUC(0-inf) ([1]; iv, i.v group, 1 mg/kg) [ng·h/mL] | AUC(0-t) ([1]; iv, i.v group, 1 mg/kg) [ng·h/mL] | Cmax ([1]; iv, i.v group, 1 mg/kg) [ng/mL] | MRT inf ([1]; iv, i.v group, 1 mg/kg) [h] | Tmax ([1]; iv, i.v group, 1 mg/kg) [h] | clearance ([1]; iv, i.v group, 1 mg/kg) [mL/min/kg] | half-life ([1]; iv, i.v group, 1 mg/kg) [h] | AUC(0-inf) ([1]; po, i.g group, 5 mg/kg) [ng·h/mL] | AUC(0-t) ([1]; po, i.g group, 5 mg/kg) [ng·h/mL] | Cmax ([1]; po, i.g group, 5 mg/kg) [ng/mL] | MRT inf ([1]; po, i.g group, 5 mg/kg) [h] | Tmax ([1]; po, i.g group, 5 mg/kg) [h] | half-life ([1]; po, i.g group, 5 mg/kg) [h] | F ([1]; i.g group, 5 mg/kg) [%] | AUC(0-inf) [2] [ng·h/mL] | AUC(0-t) [2] [ng·h/mL] | Cmax [2] [ng/mL] | MRT inf [2] [h] | Tmax [2] [h] | Compound | also measured
2.22 |  |  |  |  |  |  |  |  |  |  |  |  |  |  |  |  |  |  |  | CONC(=O)Nc1ccc(-c2sc3c(c2CN(C)C)c(=O)n(-c2ccc(-n4nccn4)nc2)c(=O)n3Cc2c(F)cccc2F)cc1 [Example 4, 1-(4-(3-(6-(2H-1,2,3-triazol-2-yl)pyrid-3-yl)-1-(2,6-difluorobenzyl)-5-((dimethylamino)methyl)-2,4-dioxo-1,2,3,4-tetrahydrothieno[2,3-d]pyrimidin-6-yl)phenyl)-3-methoxyurea] | 
1.82 | 184 | 179 | 151 | 4.58 | 0.083 | 90.7 | 2.13 | 1750 | 1710 | 164 | 6.4 | 2.33 | 4.43 | 190.6 | 11800 | 9490 | 671 | 13.2 | 1.67 | CONC(=O)Nc1ccc(-c2sc3c(c2CN(C)C)c(=O)n(-c2ccc(-n4cccn4)nc2)c(=O)n3Cc2c(F)cccc2F)cc1 [Example 3, 1-(4-(3-(6-(1H-pyrazol-1-yl)pyrid-3-yl)-1-(2,6-difluorobenzyl)-5-((dimethylamino)methyl)-2,4-dioxo-1,2,3,4-tetrahydrothieno[2,3-d]pyrimidin-6-yl)phenyl)-3-methoxyurea] | half-life [2]: 9.44 h; F [2]: 140.3%
